Assay results: BindingDB's records for doi:10.1021/jm200866y (Merck Serono, 2011)

Assay: Inhibition of CRTH2-mediated chemotaxis of human eosinophils towards PGD2 after 30 mins by fluorescence counter

Row | IC50 [µM] | Compound
1 | 0.123 | O=C(O)COc1ccc(Cl)cc1C#Cc1ccccc1Cl

Assay: Antagonist activity at CRTH2 in human blood cells assessed as inhibition of PGD2-induced eosinophil cell shape change after 10 mins by flow cytometry

Row | Compound | IC50 [µM]
2 | O=C(O)COc1ccc(Cl)cc1C#Cc1cccc(Cl)c1 | 6.9
3 | O=C(O)COc1ccc(Cl)cc1C#Cc1ccc(CO)cc1F | 0.68
4 | O=C(O)COc1ccc(Cl)cc1C#Cc1cccc(S(=O)(=O)CCO)c1 | 0.99
5 | CCCc1ccc(S(C)(=O)=O)cc1C#Cc1cc(Cl)ccc1OCC(=O)O | 1.2
6 | CC(C)c1ccc(S(C)(=O)=O)cc1C#Cc1cc(Cl)ccc1OCC(=O)O | 0.36
7 | Cc1ccc(S(=O)(=O)C(C)C)cc1C#Cc1cc(Cl)ccc1OCC(=O)O | 0.19
8 | Cc1ccc(S(=O)(=O)CC(C)C)cc1C#Cc1cc(Cl)ccc1OCC(=O)O | 0.12
9 | Cc1ccc(S(=O)(=O)c2ccccc2)cc1C#Cc1cc(Cl)ccc1OCC(=O)O | 0.26
10 | Cc1ccc(S(=O)(=O)CCCO)cc1C#Cc1cc(Cl)ccc1OCC(=O)O | 0.31
11 | Cc1ccc(S(=O)(=O)NC(C)C)cc1C#Cc1cc(Cl)ccc1OCC(=O)O | 0.25
12 | Cc1ccc(S(=O)(=O)N(C)C(C)C)cc1C#Cc1cc(Cl)ccc1OCC(=O)O | 0.14
13 | Cc1ccc(S(=O)(=O)N2CCCCC2C)cc1C#Cc1cc(Cl)ccc1OCC(=O)O (centres undefined) | 0.31
14 | CN(C)S(=O)(=O)c1cncc(C#Cc2cc(Cl)ccc2OCC(=O)O)c1 | 0.289
15 | O=C(O)COc1ccc(Cl)cc1C#Cc1ccc2c(c1)S(=O)(=O)c1ccccc1-2 | 4.3
16 | CCCS(=O)(=O)c1cccc(C#Cc2cc(Cl)ccc2OCC(=O)O)c1 | 0.75

More lines, now with the values ahead:

Row | IC50 [µM] | Compound
17 | 0.064 | Cc1ccc(S(C)(=O)=O)cc1C#Cc1cc(Cl)ccc1OCC(=O)O
18 | 0.095 | CS(=O)(=O)c1ccc(F)c(C#Cc2cc(Cl)ccc2OCC(=O)O)c1
19 | 0.026 | CS(=O)(=O)c1ccc(Cl)c(C#Cc2cc(Cl)ccc2OCC(=O)O)c1
20 | 0.081 | CCCS(=O)(=O)c1ccc(C)c(C#Cc2cc(Cl)ccc2OCC(=O)O)c1
21 | 0.023 | CCCS(=O)(=O)c1ccc(F)c(C#Cc2cc(Cl)ccc2OCC(=O)O)c1
22 | 0.091 | CC(C)S(=O)(=O)c1ccc(F)c(C#Cc2cc(Cl)ccc2OCC(=O)O)c1
23 | 0.023 | CCCS(=O)(=O)c1ccc(Cl)c(C#Cc2cc(Cl)ccc2OCC(=O)O)c1
24 | 0.067 | CC(C)S(=O)(=O)c1ccc(Cl)c(C#Cc2cc(Cl)ccc2OCC(=O)O)c1
25 | 0.023 | Cc1ccc(S(=O)(=O)N(C)C)cc1C#Cc1cc(Cl)ccc1OCC(=O)O
26 | 0.04 | CCNS(=O)(=O)c1ccc(C)c(C#Cc2cc(Cl)ccc2OCC(=O)O)c1
27 | 0.077 | COCCN(C)S(=O)(=O)c1ccc(C)c(C#Cc2cc(Cl)ccc2OCC(=O)O)c1
28 | 0.088 | COCCNS(=O)(=O)c1ccc(C)c(C#Cc2cc(Cl)ccc2OCC(=O)O)c1
29 | 0.003 | CCN(Cc1cc(-c2ccc(OC)cn2)ccc1-c1cc(CC(=O)O)ccc1OC)C(=O)C1CC1
